# Laboratory results published in BindingDB's records for doi:10.1021/jm00032a002 (Merck Sharp and Dohme Research Laboratories, 1994).
# Biological target: Gastrin/cholecystokinin type B receptor (Cavia porcellus)
# Assay: Binding activity against Cholecystokinin type B receptor from guinea pig cortex using [125]BH CCK-8s as radioligand.
compound,measurement,value
"Cc1cccc(NC(=O)NC2N=C(N3CCCCC3)c3ccccc3N(C)C2=O)c1 (stereo unspecified) [1-(1-Methyl-2-oxo-5-piperidin-1-yl-2,3-dihydro-1H-benzo[e][1,4]diazepin-3-yl)-3-m-tolyl-urea]",IC50,5.7 nM
